Assay results: US9296723B2, “NAMPT inhibitors” (AbbVie Inc., priority 2012, dated 2016)

Experiments:
[1] = target: T1, NAMPT (Homo sapiens, UniProt P43490); assay: TR-FRET Binding Assay of NAMPT with PRPP; conditions: 2 nM NAMPT, 2 nM probe, 200 µM PRPP and 2.5 mM ATP, equilibrated 16 hours
Protocol: Time-Resolved Fluorescence Resonance Energy Transfer (TR-FRET) Binding Assay of NAMPT with PRPP
Compound handling and data processing were identical to the assay in the absence of substrates (above). Final concentrations were 1× assay buffer, 2% DMSO, 2 nM NAMPT, 2 nM probe, 1 nM Tb-anti-His antibody (Invitrogen #PV5895), 200 µM PRPP and 2.5 mM ATP. Reactions were equilibrated for 16 hours prior to measurement to allow for potential enzymatic modification of test compounds.

[2] = target: T1, NAMPT; assay: Time-Resolved Fluorescence Resonance Energy Transfer (TR-FRET) Binding Assay of NAMPT; conditions: 6.8 nM NAMPT, 200 nM probe, equilibrated 3 hours, no substrates
Outline: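 IC50s come from four-parameter logistic fits of control-normalized Em520/Em495 TR-FRET ratios (Ex 337 nm) against compound concentration. Before reading, enzyme, probe, antibody and compound equilibrated for 3 h at room temperature.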

[3] = tested on: PC3 cells; assay: NAMPT Cell Proliferation Assay (Cell Titer Glo); assay type: cell-based; conditions: Homo sapiens, PC-3, 120 h, incubated 5 days, cell viability
Outline: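 Viability measured by Cell Titer Glo luminescence after 5-day exposure of attached PC3 cells to compound, dosed as 10-fold serial dilutions ([…]) in RPMI/10% FBS at 37 °C and 5% CO2. Percent inhibition fitted to sigmoidal dose-response curves for IC50.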

T1 sequence (P43490 whole entry): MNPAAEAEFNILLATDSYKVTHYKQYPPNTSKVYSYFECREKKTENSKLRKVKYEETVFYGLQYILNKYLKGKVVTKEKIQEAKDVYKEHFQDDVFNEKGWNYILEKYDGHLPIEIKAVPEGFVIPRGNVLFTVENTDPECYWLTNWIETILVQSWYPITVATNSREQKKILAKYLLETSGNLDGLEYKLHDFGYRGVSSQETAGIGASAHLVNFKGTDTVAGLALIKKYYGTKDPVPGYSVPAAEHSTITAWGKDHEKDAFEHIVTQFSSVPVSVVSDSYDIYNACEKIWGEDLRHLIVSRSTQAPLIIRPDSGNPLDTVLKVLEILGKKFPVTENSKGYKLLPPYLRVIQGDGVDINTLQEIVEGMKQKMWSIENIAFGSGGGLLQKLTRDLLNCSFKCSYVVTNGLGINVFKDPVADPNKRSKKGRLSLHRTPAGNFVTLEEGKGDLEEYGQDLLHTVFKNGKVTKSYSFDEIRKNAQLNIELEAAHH

IC50 [1] [µM]	IC50 [2] [µM]	IC50 [3] [µM]	SMILES
0.000426	0.0706	0.0307	CCC(=O)N1CC[C@@H](Oc2ccc(NC(=O)N3CC(c4cccnc4)C3)cc2)C1 [Example 319, N-(4-{[(3R)-1-propanoylpyrrolidin-3-yl]oxy}phenyl)-3-(pyridin-3-yl)azetidine-1-carboxamide]
0.000407	0.208	0.155	COCCOCC(=O)N1CC[C@@H](Oc2ccc(NC(=O)N3CC(c4cccnc4)C3)cc2)C1 [Example 320, N-[4-({(3R)-1-[(2-methoxyethoxy)acetyl]pyrrolidin-3-yl}oxy)phenyl]-3-(pyridin-3-yl)azetidine-1-carboxamide]
0.000282	0.002	0.00583	O=C(Nc1ccc(C2CCN(C(=O)c3ccco3)CC2)cc1)N1CC(c2cccnc2)C1 [Example 190, N-{4-[1-(furan-2-ylcarbonyl)piperidin-4-yl]phenyl}-3-(pyridin-3-yl)azetidine-1-carboxamide]
0.000287	0.296	0.0981	O=C(Nc1ccc(C2CN(C(=O)[C@H]3CCCO3)C2)cc1)N1CC(c2cccnc2)C1 [Example 103, 3-(pyridin-3-yl)-N-(4-{1-[(2R)-tetrahydrofuran-2-ylcarbonyl]azetidin-3-yl}phenyl)azetidine-1-carboxamide]
0.000349	0.0486	0.0604	CCC(C)(C)C(=O)N1CC(c2ccc(NC(=O)N3CC(c4cccnc4)C3)cc2)C1 [Example 204, N-{4-[1-(2,2-dimethylbutanoyl)azetidin-3-yl]phenyl}-3-(pyridin-3-yl)azetidine-1-carboxamide]
0.000194	0.0335	0.0713	O=C(CC1CCCC1)N1CCC(c2ccc(NC(=O)N3CC(c4cccnc4)C3)cc2)C1 (centres unmarked) [Example 261, N-{4-[1-(cyclopentylacetyl)pyrrolidin-3-yl]phenyl}-3-(pyridin-3-yl)azetidine-1-carboxamide]
0.000276	0.0304	0.0145	CC(C)(C)CC(=O)N1CC[C@@H](Oc2ccc(NC(=O)N3CC(c4cccnc4)C3)cc2)C1 [Example 329, N-(4-{[(3R)-1-(3,3-dimethylbutanoyl)pyrrolidin-3-yl]oxy}phenyl)-3-(pyridin-3-yl)azetidine-1-carboxamide]
0.000243	0.0534	0.0661	O=C(Nc1ccc(OC2CN(C(=O)[C@@H]3CCCO3)C2)cc1)N1CC(c2cccnc2)C1 [Example 29, 3-(pyridin-3-yl)-N-[4-({1-[(2S)-tetrahydrofuran-2-ylcarbonyl]azetidin-3-yl}oxy)phenyl]azetidine-1-carboxamide]
0.000416	0.0561	0.0224	CC(C)CC(=O)N1CC[C@@H](Oc2ccc(NC(=O)N3CC(c4cccnc4)C3)cc2)C1 [Example 333, N-(4-{[(3R)-1-(3-methylbutanoyl)pyrrolidin-3-yl]oxy}phenyl)-3-(pyridin-3-yl)azetidine-1-carboxamide]
0.000335	0.653	0.97	CC(C)(C)CCN1CCC(c2ccc(NC(=O)N3CC(c4cccnc4)C3)cc2)CC1 [Example 233, N-{4-[1-(3,3-dimethylbutyl)piperidin-4-yl]phenyl}-3-(pyridin-3-yl)azetidine-1-carboxamide]
0.000222	0.00685	0.00358	O=C(Nc1ccc(C2CCN(C(=O)c3ccccc3)CC2)cc1)N1CC(c2cccnc2)C1 [Example 57, N-[4-(1-benzoylpiperidin-4-yl)phenyl]-3-(pyridin-3-yl)azetidine-1-carboxamide]
0.000419	0.0505	0.0264	O=C(CC1CC1)N1CCC(Oc2ccc(NC(=O)N3CC(c4cccnc4)C3)cc2)CC1 [Example 40, N-(4-{[1-(cyclopropylacetyl)piperidin-4-yl]oxy}phenyl)-3-(pyridin-3-yl)azetidine-1-carboxamide]
0.000294	0.0274		CC1(C(=O)N2CC(c3ccc(NC(=O)N4CC(c5cccnc5)C4)cc3)C2)CCCCC1 [Example 215, N-(4-{1-[(1-methylcyclohexyl)carbonyl]azetidin-3-yl}phenyl)-3-(pyridin-3-yl)azetidine-1-carboxamide]
0.000341	0.0559		O=C(Nc1ccc(C2CN(C(=O)C3CCCCC3)C2)cc1)N1CC(c2cccnc2)C1 [Example 211, N-{4-[1-(cyclohexylcarbonyl)azetidin-3-yl]phenyl}-3-(pyridin-3-yl)azetidine-1-carboxamide]
0.000181	0.352		O=C(Nc1ccc(C2CCN(CC3CCCCC3)CC2)cc1)N1CC(c2cccnc2)C1 [Example 232, N-{4-[1-(cyclohexylmethyl)piperidin-4-yl]phenyl}-3-(pyridin-3-yl)azetidine-1-carboxamide]
0.00032	0.278		CC(=O)N1CC(c2ccc(NC(=O)N3CC(c4cccnc4)C3)cc2)C1 [Example 217, N-[4-(1-acetylazetidin-3-yl)phenyl]-3-(pyridin-3-yl)azetidine-1-carboxamide]

IC50 [1] [µM]	IC50 [2] [µM]	IC50 [3] [µM]	SMILES
0.000466	0.603		CCCCN1CCC(c2ccc(NC(=O)N3CC(c4cccnc4)C3)cc2)CC1 [Example 240, N-[4-(1-butylpiperidin-4-yl)phenyl]-3-(pyridin-3-yl)azetidine-1-carboxamide]
0.00029	0.0194		O=C(Nc1ccc(C2CN(C(=O)c3ccsc3)C2)cc1)N1CC(c2cccnc2)C1 [Example 219, 3-(pyridin-3-yl)-N-{4-[1-(thiophen-3-ylcarbonyl)azetidin-3-yl]phenyl}azetidine-1-carboxamide]
0.000313	0.0432		CC(C)CCC(=O)N1CC(c2ccc(NC(=O)N3CC(c4cccnc4)C3)cc2)C1 [Example 201, N-{4-[1-(4-methylpentanoyl)azetidin-3-yl]phenyl}-3-(pyridin-3-yl)azetidine-1-carboxamide]
0.000356	0.128		CC1CC1C(=O)N1CC(c2ccc(NC(=O)N3CC(c4cccnc4)C3)cc2)C1 (centres unmarked) [Example 199, N-(4-{1-[(2-methylcyclopropyl)carbonyl]azetidin-3-yl}phenyl)-3-(pyridin-3-yl)azetidine-1-carboxamide]
0.000294	0.0692		CC1(C(=O)N2CC(c3ccc(NC(=O)N4CC(c5cccnc5)C4)cc3)C2)CC1 [Example 227, N-(4-{1-[(1-methylcyclopropyl)carbonyl]azetidin-3-yl}phenyl)-3-(pyridin-3-yl)azetidine-1-carboxamide]
0.000242	0.0426		CC(C)(C)CC(=O)N1CC(c2ccc(NC(=O)N3CC(c4cccnc4)C3)cc2)C1 [Example 205, N-{4-[1-(3,3-dimethylbutanoyl)azetidin-3-yl]phenyl}-3-(pyridin-3-yl)azetidine-1-carboxamide]
0.000174	0.246		CC(C)(C)CN1CC(c2ccc(NC(=O)N3CC(c4cccnc4)C3)cc2)C1 [Example 254, N-{4-[1-(2,2-dimethylpropyl)azetidin-3-yl]phenyl}-3-(pyridin-3-yl)azetidine-1-carboxamide]
0.000391	0.0216		Cc1ccc(C(=O)N2CC(c3ccc(NC(=O)N4CC(c5cccnc5)C4)cc3)C2)s1 [Example 223, N-(4-{1-[(5-methylthiophen-2-yl)carbonyl]azetidin-3-yl}phenyl)-3-(pyridin-3-yl)azetidine-1-carboxamide]
0.000529	0.76		CCCC(C)CN1CCC(c2ccc(NC(=O)N3CC(c4cccnc4)C3)cc2)CC1 (centres unmarked) [Example 234, N-{4-[1-(2-methylpentyl)piperidin-4-yl]phenyl}-3-(pyridin-3-yl)azetidine-1-carboxamide]
0.000516	1.17		CCC(C)(C)CN1CCC(c2ccc(NC(=O)N3CC(c4cccnc4)C3)cc2)CC1 [Example 244, N-{4-[1-(2,2-dimethylbutyl)piperidin-4-yl]phenyl}-3-(pyridin-3-yl)azetidine-1-carboxamide]
0.000427	0.25		CCOCCC(=O)N1CC(c2ccc(NC(=O)N3CC(c4cccnc4)C3)cc2)C1 [Example 203, N-{4-[1-(3-ethoxypropanoyl)azetidin-3-yl]phenyl}-3-(pyridin-3-yl)azetidine-1-carboxamide]
0.00037	0.451		CCOCC(=O)N1CC(c2ccc(NC(=O)N3CC(c4cccnc4)C3)cc2)C1 [Example 207, N-{4-[1-(ethoxyacetyl)azetidin-3-yl]phenyl}-3-(pyridin-3-yl)azetidine-1-carboxamide]
0.000225	0.374		O=C(Nc1ccc(C2CCN(CCC3CC3)CC2)cc1)N1CC(c2cccnc2)C1 [Example 242, N-{4-[1-(2-cyclopropylethyl)piperidin-4-yl]phenyl}-3-(pyridin-3-yl)azetidine-1-carboxamide]
0.000314	0.0403		O=C(CC1CCCC1)N1CC(c2ccc(NC(=O)N3CC(c4cccnc4)C3)cc2)C1 [Example 229, N-{4-[1-(cyclopentylacetyl)azetidin-3-yl]phenyl}-3-(pyridin-3-yl)azetidine-1-carboxamide]
0.000319	0.152		O=C(CN1CCOCC1)N1CC(c2ccc(NC(=O)N3CC(c4cccnc4)C3)cc2)C1 [Example 221, N-{4-[1-(morpholin-4-ylacetyl)azetidin-3-yl]phenyl}-3-(pyridin-3-yl)azetidine-1-carboxamide]
